Source: patent publication US5976523A, “Method for healing compromised tissues using pyrimidine derivatives” (Mitsui Pharmaceuticals, Inc., priority 1995, dated 1999)
Counter-ions that a name gives are not always drawn.

What was measured:
[1] = tested on: PDGF-A mRNAs; experiment: Polysome distribution (translation) of PDGF-A mRNAs in rat SMCs; format: cell-based
Method: SMCs were prepared following the method proposed by Ross and Klebanoff in "J. Cell. […] A rat thoracic aorta was excised. After the tunica externa was peeled off, the tunica media and the tunica intima were minced into 2-3 mm^2. The minced sections were placed standstill in a 25-cm^2 flask which contained Waymouth's MB 752/1 medium containing 10% FBS and 80 ng/ml of gentamycin (product of Schering-Plough Corp.), followed by incubation at 37° C. for 2 to 3 weeks in the presence of 5% carbon dioxide gas (primary culture). The same volume of a trypsin-EDTA solution was added to the flask. After the sections were treated at 37° C. for 5 minutes to peel off cells, the cells were diluted with 10% FBS-Waymouth's MB 752/1 medium and then subcultured (second generation). Subculture was successively conducted likewise whenever the SMC became confluent. In the following experiments, the cells from the 5th generation to the 12th generation were employed. After reach in confluence of cells, the cultured SMCs were cultured for 2 days in a serum-free medium to avoid influence of serum. The SMCs were then added with thrombin (1.0 U/ml) or serotonin (5 μM), followed by incubation at 37° C. for 6 hours under which bring about induction of PDGF-A mRNAs at the maximum. To prevent dissociation of ribosomes and mRNAs, cycloheximide (100 μg/ml) was added 5 minutes before cells were collected. […] Biol. Chem.", 267, 508 ff, 1992 with slight modifications. The cells, which had been collected by the treatment with trypsin, were washed with PBS containing cycloheximide (100 μg/ml). A cell precipitate was then added with 500 μl of a high-salt lysis buffer (20 mM Tris-HCl pH 7.5, 250 mM NaCl, 5 mM MgCl2, 0.1% Noni det P-40, 0.2% DOC) for homogenization. The homogenate was centrifuged under 12,000×g at 4° C. for 10 minutes. The resulting supernatant was added with 67 μl of a heparine mix (7.4 mg/ml heparine, 1.1M NaCl, 15 mM DTT and RNasin). 200 μl of the extract were layered on 5 ml of 0.5-1.25M linear sucrose gradient (which contained 20 mM Tris-HCl pH 7.4, 10 mM NaCl, 3 mM MgCl2), followed by centrifugation under 45,000 rpm for 90 minutes in a "Hitachi […]". While monitoring the absorbance at 260 nm, ten (10) fractions were obtained. […] Subsequent to incubation at 37° C. for 1 hour, each fraction was extracted once with 1/2 volume of phenol, twice with 1/2 volume aliquots of chloroform, and once with the equal volume of chloroform, whereby proteins were removed. The water layer was added with glycogen (20 μg/ml) as a coprecipitant and then with 0.03M of sodium acetate, and RNAs were caused to precipitate with 2 volumes of ethanol. After RNAs were incubated at 65° C. for 5 minutes in a solution containing 60% of formamide, 5.9% of formaldehyde and the equal volume of MOPS buffer (10 mM MOPS pH 7.0, 4 mM NaOAc, 0.5 mM EDTA), electrophoresis was conducted across 1.2% agarose gels containing the equal volume of MOPS buffer so that RNAs were. isolated. After the gel was washed with 20 volumes of SSC, RNAs were blotted overnight to a Gene Screen Plus membrane by the capillary method. Fixing of the RNAs was conducted by exposing them for 1 minute at a distance of 10 cm from […]. Using a "QuickHyb Hybridization Solution" (product of Strategene Ltd.), hybridization was conducted following the instruction manual attached to the solution. Results of autoradiography were quantitated with reference to the NIH Image. […]

[2] = tested on: CAMs (chorioallantoic membranes); experiment: Angiogenesis on chorioallantoic membranes (CAM); format: in vivo, chick; settings: for number of new blood vessels (M±SE): day 3
Method: For a bFGF, various assay systems assessing the angiogenesis activity of the bFGF as an index are usable. The shells of chick embryos are fenestrated centrally corresponding to the air spaces thereof, whereby the chorioallantoic membranes (CAMS) are exposed. Solutions of the bFGF and a test medicament at various concentrations were applied onto the respective CAMs. Incubation was continued. Several days later, the degrees of angiogenesis were investigated under a microscope. This method is preferably employed. […] The test medicament is therefore found to be useful for the reduction of a time required for the construction of a skin-equivalent tissue. […] Also with respect to a VEGF, its angiogenesis activity can be assayed in a similar system.
The shells of eggs on the 10th day after fertilization were fenestrated centrally corresponding to air spaces thereof, whereby CAMs (chorioallantoic membranes) were exposed. A nylon film in the form of a square of 3 mm in side was placed over the CAM, and onto the nylon film, a solution of bFGF as a growth and/or differentiation factor or the pyrimidine compound according to the present invention was dropped in an amount of 8 ul. Incubation was continued at 38° C. On the 72nd hour, the eggs were moved to a cool place controlled at 4° C. After the eggs were left over for 2 to 3 hours there, the degree of angiogenesis in each egg was investigated under a microscope. The angiogenesis was determined based on the number of radial blood vessels equal to or larger than 0.1 mm in diameter. Onto the nylon disk placed over the CAMS, 1, 10, and 100 ng/ml solutions of recombinant human bFGF (product of Genzyme Corporation) in physiological saline and 0.01 to 1 mM solutions of the individual pyrimidine compound in physiological saline were applied singly or in combination.

[3] = tested on: TMK1 cells; experiment: Morphological change of TMK1 cells; format: cell-based
[4] = tested on: skin or muscle cut; experiment: Skin/muscle cut-suture rat model; format: in vivo; settings: scanning electron microscope; indicative of the possibility
Source text: As a feature specific to this model, collagen fibers form a plate-like structure so that they cross at right angles with muscle fibers, and macrophages accumulate on the plate-like structure. This plate-like collagen is considered to serve in such a way that it prevents detachment or fraying of both cut ends of muscle fibers and assists formation of an anastomosis.

Q: Which results are given for `CN1Cc2nc(N3CCNCC3)ncc2C1=O` [Compound B, 2-piperazino-6-methyl-5-oxo-5,6-dihydro(7H)pyrro[3,4-d]pyrimidine maleate]?
A: translation state of 1.3 kb PDGF-A mRNAs ([1]; compound): in a translated form; translation state of 1.7 kb PDGF-A mRNAs ([1]; compound, serum-free medium): converted into a translated form; translation state of PDGF-A mRNAs ([1]; thrombin + compound): converted into a translated form; number of new vessels (M±SE) ([2]; bFGF (concentration not stated) + 0.01 mM compound): 8.1±1.1; number of new vessels (M±SE) ([2]; bFGF (concentration not stated) + 0.1 mM compound): 8.5±0.8; number of new vessels (M±SE) ([2]; bFGF (concentration not stated) + 1 mM compound): 9.3±0.5; angiogenesis ability of bFGF ([2]; bFGF + compound): synergistically enhanced; number of new blood vessels (M±SE) ([2]; compound alone 0.01 mM): 3.5±0.9; number of new blood vessels (M±SE) ([2]; compound alone 0.1 mM): 3.4±0.5; number of new blood vessels (M±SE) ([2]; compound alone 1 mM): 4.4±0.7; time of sprouting of the process of the cells similar to neurites ([3]; EGF and compound): 8 h; morphological changes ([3]; EGF and compound, compared with EGF alone): still more marked intensive morphological changes; network formation of cell processes ([3]; EGF and compound, day 1): forming a dense network on day 1; morphological changes ([3]; singly added, 1 mM, fifth hour to day 1): only slight morphological changes; morphological changes after removal of the test agent ([3]; test agent removed): these morphological changes disappeared; accumulation of macrophages [4]: effectively acts for the promotion of the formation of such plate-like collagen and the accumulation of macrophages; formation of plate-like collagen [4]: effectively acts for the promotion of the formation of such plate-like collagen
